Results reported in patent US10966426B2, “Herbicidal compositions comprising phenylpyrimidines” (BASF SE, priority 2016, dated 2021).

Experiments:
Type in all cases: in vivo
Polygonum convolvulus = experiment: greenhouse post-emergence treatment, POLCO
Method in brief: (§1)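 Foliar application to greenhouse-grown plants 3–15 cm tall in humus-containing loamy sand; response assessed on a 0–100 scale after 2–4 weeks, with Colby's E=X+Y−(X·Y/100) as the additive expectation.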

Matricaria chamomilla = experiment: greenhouse post-emergence treatment, MATCH; settings: for % activity: 20 DAT
Method in brief: as §1

Galium aparine = experiment: greenhouse post-emergence treatment, GALAP; settings: for % activity: 20 DAT
Method in brief: as §1

Digitaria sanguinalis = experiment: greenhouse post-emergence treatment, DIGSA; settings: for % activity: 20 DAT
Method in brief: (§2)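 Plants were grown in pots of loamy sand with approximately 3.0% humus, either sown directly or transplanted as seedlings a few days before treatment, and sprayed with water-based treatments. They were kept at 10-25° C. or 20-35° C. depending on species and rated visually after 2 to 4 weeks on a 0–100 scale (100 = no emergence or complete destruction of above-ground parts).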

Papaver rhoeas = experiment: greenhouse post-emergence treatment, PAPRH; settings: for % activity: 20 DAT
Method in brief: as §1

Lolium multiflorum = experiment: greenhouse post-emergence treatment, LOLMU
Method in brief: as §2

Stellaria media = experiment: greenhouse post-emergence treatment, STEME
Method in brief: (§3)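 Greenhouse; post-emergence spray at 3–15 cm; aqueous EC formulation; 2–4 weeks; 0–100 visual score.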

Echinocloa crus-galli = experiment: greenhouse post-emergence treatment, ECHCG
Procedure: (§4) The culture containers used were plastic pots containing loamy sand with approximately 3.0% of humus as substrate. The seeds of the test plants were sown separately for each species.
(§5) For the post-emergence treatment, the test plants were grown to a plant height of from 3 to 15 cm, depending on the plant habit, and only then treated with the active compounds which had been suspended or emulsified in water. To this end, the test plants were either sown directly, and grown in the same containers, or they were first grown separately as seedlings and transplanted into the test containers a few days prior to treatment.
(§6) Depending on the species, the plants were kept at 10-25° C. and 20-35° C., respectively.
(§7) The test period extended over 2 to 4 weeks. During this time, the plants were tended and their response to the individual treatments was evaluated.
(§8) Evaluation was carried out using a scale from 0 to 100. 100 means no emergence of the plants, or complete destruction of at least the above-ground parts, and 0 means no damage or normal course of growth. A good herbicidal activity is given at values of at least 70, and very good herbicidal activity is given at values of at least 85.
(§9) The respective stated components A and B, and if appropriate, C were formulated as a 10% by weight strength emulsion concentrate and, with addition of the amount of solvent system, introduced into the spray liquor used for applying the active compound. In the examples, the solvent used was water.
(§10) In the examples below, using the method of S. R. Colby (1967) “Calculating synergistic and antagonistic responses of herbicide combinations”, Weeds 15, p. 22ff., the value E, which is expected if the activity of the individual active compounds is only additive, was calculated. E=X+Y−(X·Y/100) where X=effect in percent using herbicide A at an application rate a; • Y=effect in percent using herbicide B at application rate b; • E=expected effect (in %) of herbicide A+herbicide B at application rates a+b.

Ambrosia elatior = experiment: greenhouse post-emergence treatment, AMBEL; settings: for % activity: 20 DAT
Procedure: as §4, §5, §6, §7, §8, §9, §10

Setaria viridis = experiment: greenhouse post-emergence treatment, SETVI; settings: for % activity: 20 DAT
Method in brief: as §2

Avena fatua = experiment: greenhouse post-emergence treatment, AVEFA; settings: Avena fatua, 504 h, 21 DAT, AVEFA
Method in brief: as §2

Brachiaria decumbens = experiment: greenhouse post-emergence treatment, BRADC; settings: Urochloa decumbens, 504 h, 21 DAT, BRADC
Method in brief: as §3

Bromus sterilis = experiment: greenhouse post-emergence treatment, BROST; settings: Bromus sterilis, 504 h, 21 DAT, BROST
Method in brief: as §2

Poa annua = experiment: greenhouse post-emergence treatment, POAAN; settings: Poa annua, 504 h, pyroxasulfone solo 15 gai/ha, 21 DAT, POAAN
Procedure: as §4, §5, §6, §7, §8, §9, §10

Alopecurus myosuroides = experiment: greenhouse post-emergence treatment, ALOMY; settings: Alopecurus myosuroides, 504 h, 21 DAT, ALOMY
Method in brief: as §2

[1] = 20 DAT, mesosulfuron solo 2 gai/ha

SMILES: COC(=O)c1ccc(CNS(C)(=O)=O)cc1S(=O)(=O)NC(=O)Nc1nc(OC)cc(OC)n1 [mesosulfuron]
- % activity (Polygonum convolvulus; [1]): 30%
- % activity (Matricaria chamomilla; mesosulfuron solo 1 gai/ha): 30%
- % activity (Matricaria chamomilla; mesosulfuron solo 2 gai/ha): 30%
- % activity (Matricaria chamomilla; mesosulfuron solo 8 gai/ha): 90%
- % activity (Matricaria chamomilla; mesosulfuron solo 9 gai/ha): 90%
- % activity (Matricaria chamomilla; mesosulfuron solo (Mesosulfuron - Methyl WG […]), 2 gai/ha, MATCH): 30%
- % activity (Galium aparine; mesosulfuron solo 4 gai/ha): 65%
- % activity (Galium aparine; mesosulfuron solo 8 gai/ha): 75%
- % activity (Galium aparine; mesosulfuron solo (Mesosulfuron - Methyl WG […]), 1 gai/ha, GALAP): 55%
- % activity (Galium aparine; mesosulfuron solo (Mesosulfuron - Methyl WG […]), 2 gai/ha, GALAP): 65%
- % activity (Galium aparine; mesosulfuron solo (Mesosulfuron - Methyl WG […]), 4 gai/ha, GALAP): 65%
- % activity (Galium aparine; mesosulfuron solo (Mesosulfuron - Methyl WG […]), 8 gai/ha, GALAP): 75%
- % activity (Digitaria sanguinalis; mesosulfuron solo 1 gai/ha): 0%
- % activity (Digitaria sanguinalis; mesosulfuron solo 2 gai/ha): 0%
- % activity (Digitaria sanguinalis; mesosulfuron solo 4 gai/ha): 20%
- % activity (Papaver rhoeas; mesosulfuron solo 1 gai/ha): 70%
- % activity (Papaver rhoeas; mesosulfuron solo 2 gai/ha): 90%
- % activity (Papaver rhoeas; mesosulfuron solo 8 gai/ha): 98%
- % activity (Papaver rhoeas; mesosulfuron solo (Mesosulfuron - Methyl WG […]), 1 gai/ha, PAPRH): 70%
- % activity (Lolium multiflorum; 20 DAT, mesosulfuron solo 8 gai/ha): 90%
- % activity (Stellaria media; 20 DAT, mesosulfuron solo 1 gai/ha): 95%
- % activity (Echinocloa crus-galli; [1]): 0%
- % activity (Ambrosia elatior; mesosulfuron solo 2 gai/ha): 80%
- % activity (Ambrosia elatior; mesosulfuron solo 4 gai/ha): 85%
- % activity (Setaria viridis; mesosulfuron solo 8 gai/ha): 85%
- % activity (Setaria viridis; mesosulfuron solo (Mesosulfuron - Methyl WG […]), 8 gai/ha, SETVI): 85%

SMILES: Cn1nc(C(F)(F)F)c(CS(=O)(=O)C2=NOC(C)(C)C2)c1OC(F)F [pyroxasulfone]
- pest or weed control at […] (Polygonum convolvulus; Fallopia convolvulus, 504 h, POLCO, solo pyroxasulfone (WG 85%) 7.5 gai/ha, 21 DAT): 30%
- pest or weed control at 15 g/ha (Polygonum convolvulus; Fallopia convolvulus, 504 h, POLCO, solo pyroxasulfone (WG 85%) 15 gai/ha, 21 DAT): 30%
- pest or weed control at 30 g/ha (Polygonum convolvulus; Fallopia convolvulus, 504 h, POLCO, solo pyroxasulfone (WG 85%) 30 gai/ha, 21 DAT): 30%
- pest or weed control at 60 g/ha (Polygonum convolvulus; Fallopia convolvulus, 504 h, POLCO, solo pyroxasulfone (WG 85%) 60 gai/ha, 21 DAT): 30%
- inhibition at […] (Polygonum convolvulus; Fallopia convolvulus, 504 h, pyroxasulfone solo 7.5 gai/ha, 21 DAT, POLCO): 30%
- inhibition at 15 g/ha (Polygonum convolvulus; Fallopia convolvulus, 504 h, pyroxasulfone solo 15 gai/ha, 21 DAT, POLCO): 30%
- inhibition at 30 g/ha (Polygonum convolvulus; Fallopia convolvulus, 504 h, pyroxasulfone solo 30 gai/ha, 21 DAT, POLCO): 30%
- inhibition at 60 g/ha (Polygonum convolvulus; Fallopia convolvulus, 504 h, pyroxasulfone solo 60 gai/ha, 21 DAT, POLCO): 30%
- inhibition at […] (Avena fatua; pyroxasulfone solo 7.5 gai/ha): 25%
- inhibition at 15 g/ha (Avena fatua; pyroxasulfone solo 15 gai/ha): 30%
- pest or weed control at 15 g/ha (Matricaria chamomilla; Matricaria chamomilla, 504 h, MATCH, solo pyroxasulfone (WG 85%) 15 gai/ha, 21 DAT): 0%
- inhibition at 15 g/ha (Matricaria chamomilla; Matricaria chamomilla, 504 h, pyroxasulfone solo 15 gai/ha, 21 DAT, MATCH): 0%
- inhibition at […] (Brachiaria decumbens; pyroxasulfone solo 7.5 gai/ha): 0%
- inhibition at 30 g/ha (Brachiaria decumbens; pyroxasulfone solo 30 gai/ha, read-out: % activity): 55%
- inhibition at 60 g/ha (Brachiaria decumbens; pyroxasulfone solo 60 gai/ha, read-out: % activity): 75%
- pest or weed control at 15 g/ha (Galium aparine; Galium aparine, 504 h, GALAP, solo pyroxasulfone (WG 85%) 15 gai/ha, 21 DAT): 70%
- inhibition at […] (Galium aparine; Galium aparine, 504 h, pyroxasulfone solo 7.5 gai/ha, 21 DAT, GALAP): 40%
- inhibition at […] (Bromus sterilis; pyroxasulfone solo 7.5 gai/ha): 20%
- inhibition at 15 g/ha (Bromus sterilis; pyroxasulfone solo 15 gai/ha): 40%
- pest or weed control at […] (Digitaria sanguinalis; Digitaria sanguinalis, 504 h, DIGSA, solo pyroxasulfone (WG 85%) 7.5 gai/ha, 21 DAT): 0%
- pest or weed control at 15 g/ha (Digitaria sanguinalis; Digitaria sanguinalis, 504 h, DIGSA, solo pyroxasulfone (WG 85%) 15 gai/ha, 21 DAT): 0%
- pest or weed control at […] (Papaver rhoeas; Papaver rhoeas, 504 h, PAPRH, solo pyroxasulfone (WG 85%) 7.5 gai/ha, 21 DAT): 0%
- pest or weed control at 15 g/ha (Papaver rhoeas; Papaver rhoeas, 504 h, PAPRH, solo pyroxasulfone (WG 85%) 15 gai/ha, 21 DAT): 0%
- pest or weed control at 30 g/ha (Papaver rhoeas; Papaver rhoeas, 504 h, PAPRH, solo pyroxasulfone (WG 85%) 30 gai/ha, 21 DAT): 30%
- pest or weed control at 60 g/ha (Papaver rhoeas; Papaver rhoeas, 504 h, PAPRH, solo pyroxasulfone (WG 85%) 60 gai/ha, 21 DAT): 60%
- inhibition at 15 g/ha (Papaver rhoeas; Papaver rhoeas, 504 h, pyroxasulfone solo 15 gai/ha, 21 DAT, PAPRH): 0%
- inhibition at 60 g/ha (Papaver rhoeas; Papaver rhoeas, 504 h, pyroxasulfone solo 60 gai/ha, 21 DAT, PAPRH): 60%
- inhibition at 15 g/ha (Poa annua): 70%
- inhibition at […] (Lolium multiflorum; Lolium multiflorum, 504 h, pyroxasulfone solo 7.5 gai/ha, 21 DAT, LOLMU): 40%
- inhibition at 15 g/ha (Lolium multiflorum; Lolium multiflorum, 504 h, pyroxasulfone solo 15 gai/ha, 21 DAT, LOLMU): 65%
- inhibition at 30 g/ha (Lolium multiflorum; Lolium multiflorum, 504 h, pyroxasulfone solo 30 gai/ha, 21 DAT, LOLMU): 70%
- inhibition at 30 g/ha (Stellaria media; Stellaria media, 504 h, pyroxasulfone solo 30 gai/ha, 21 DAT, STEME): 0%
- inhibition at 60 g/ha (Echinocloa crus-galli; Echinochloa crus-galli, 504 h, pyroxasulfone solo 60 gai/ha, 21 DAT, ECHCG, read-out: % activity): 80%
- inhibition at 30 g/ha (Ambrosia elatior; Ambrosia artemisiifolia, 504 h, pyroxasulfone solo 30 gai/ha, 21 DAT, AMBEL): 20%
- inhibition at 60 g/ha (Ambrosia elatior; Ambrosia artemisiifolia, 504 h, pyroxasulfone solo 60 gai/ha, 21 DAT, AMBEL): 60%
- pest or weed control at 15 g/ha (Setaria viridis; Setaria viridis, 504 h, SETVI, solo pyroxasulfone (WG 85%) 15 gai/ha, 21 DAT): 40%
- inhibition at […] (Alopecurus myosuroides; pyroxasulfone solo 7.5 gai/ha): 35%
- inhibition at 30 g/ha (Alopecurus myosuroides; pyroxasulfone solo 30 gai/ha): 65%
